In US10344065B2, “Method for treating Alzheimer's disease and method for downregulating protein aggregation in brain” (National Cheng Kung University, priority 2017, dated 2019):

System: 3×Tg mice
Test: Novel object recognition test
Format: in vivo, mouse
Conditions: vs sham
Protocol: All experiments were carried out in accordance with the National Institutes of Health Guidelines for animal research (Guide for the Care and Use of Laboratory Animal) and approved by the National Cheng Kung University Institutional Animal Care and Use Committee. The 3×Tg mice (B6; 129-Psen1tm1Mpm Tg[APPSwe, tauP301L]1Lfa/Mmjax), were obtained from the Jackson Laboratory (Bar Harbor, […], USA) and housed in a controlled room (temperature 23±1° C., humidity 55±5%, 12-hour light/12-hour dark cycle, light cycle begins at 06:00) located in the Laboratory Animal Center of National Cheng Kung University (Tainan, Taiwan) with unrestricted access to food and water. All mice were genotyped using a protocol provided by the Jackson Laboratory. The 3×Tg mice develop intracellular Aβ immuno-positive staining as early as 3-4 months and aggregates of hyperphosphorylated tau in the hippocampus around 12 months of age. Impaired synaptic transmission and long-term potentiation are evident about 6 months of age. At the age of 10 months (body weight, 31˜35 g), five 3×Tg mice received four consecutive weekly injections of Zfra4-10 solution (2 mM in phosphate buffered saline [PBS], 100 μL each injection) from the tail veins. […]
The experiment was performed from 6 PM each day. […] The cumulative times spent by the mouse in exploring each of the objects were recorded during a 5-minute period. […] The times spent in exploring each object during a 5-minute period were recorded in either the STM or the LTM test. […]
All experimental results were represented as mean±standard error of the mean. The results for novel object recognition test, probe test of Morris water maze, relative ventricle area, and relative optical density of pS412-tau immunoreactivity were analyzed by two-tailed Mann-Whitney test, whereas the Aβ-positive cell number was analyzed by two-tailed unpaired t-test. The Morris water maze learning section results were analyzed using a repeated mixed-model analysis of variance with training session as within-subject factor and the Zfra injection as between-subject factor. […]

Substance: RRSSSCK [Zfra4-10, truncated zinc finger-like peptide, amino acids 4-10 of Zfra]
- exploring times of the novel object, short-term memory task (3×Tg mice, 2 hours after acquisition, P=0.074): marginal, but not significant, increase
- novel object exploring times, long-term memory task (3×Tg mice, 24 hours after acquisition, P=0.008): significantly higher
- exploring times on each object, acquisition phase (11-month-old 3×Tg mice, one week after four weekly tail vein injections (2 mM, 100 μL), 5-minute acquisition, P>0.5): approximately equal exploring times on each object
